{"source": "patent US20210386791A1", "about": "“METHODS OF CELLULAR REPROGRAMMING” (TissueTech, Inc., priority 2018, published 2021)", "key": {"[1]": {"system": "human corneal fibroblasts (HCF)", "assay": "Reversal of HCF to keratocytes on immobilized HC-HA/PTX3 with or without SB431542 or AMD3100", "assay_type": "cell-based", "conditions": "day 1 up to 7 days", "method": "A total of 86 human corneas from individuals aged 18-76 years and maintained at 4° C. in Optisol (Chiron Vision, Irvine, Calif.) for less than 7 days after death were obtained from the Florida Lions Eye Bank (Miami, Fla.) and handled according to the declaration of Helsinki. HCF were isolated and cultured. Briefly, the sheets of the epithelium and the endothelium were removed from corneas, the stroma sections were cut into cubes of approximately 1 mm3, incubated in 2 mg/ml collagenase for 16 h at 37° C., and then placed in a culture medium consisting of DMEM supplemented with 10% fetal bovine serum containing […]. The culture medium was refreshed twice a week. The cells cultured to passage 3 were used for all experiments. To reverse fibroblasts or myofibroblasts into keratocytes, fibroblasts or myofibroblasts were cultured on immobilized HC-HA/PTX3 in DMEM+10% FBS for 3 days using the samples from the cells on plastic and HA as the controls. Some of the cell cultures were extended to up to 7 days of culture to monitor the expression of α-SMA formation. Total RNAs were extracted using RNeasy Mini Kit (Qiagen) and reverse-transcribed using High Capacity Reverse Transcription Kit (Applied Biosystems). cDNA was amplified by real-time RT-PCR using specific primer-probe mixtures and DNA polymerase in Quant Studio 5 Real-time PCR System (Applied Biosystems). Real-time RT-PCR profile consisted of 10 min of initial activation at 95° C., followed by 40 cycles of 15 s denaturation at 95° C., and 1 min annealing and extension at 60° C. The genuine identity of each PCR product was confirmed by the size determination using 2% agarose gels followed by ethidium bromide staining together with PCR marker according to EC3 Imaging System (BioImaging System, Upland, Calif.). The samples of human corneal fibroblasts, myofibroblasts and corneal keratocytes were air-dried and fixed in 4% formaldehyde, pH 7.0, for 15 min at room temperature, rehydrated in PBS, incubated with 0.2% Triton X-100 for 15 min, and rinsed 3 times with PBS for 5 min each. […] After three washes with PBS, they were incubated with corresponding Alexa-Fluor-conjugated secondary IgG (all 1:100 dilution) for 60 min. The samples were then counterstained with Hoechst 33342 and analyzed in Zeiss LSM 700 confocal microscope (Thornhood, N.Y.). Corresponding mouse and rabbit sera were used as negative controls for primary monoclonal and polyclonal antibodies, respectively. Cell lysates were prepared in RIPA buffer and resolved on 4-15% (w/v) gradient acrylamide gels under denaturing and reducing conditions for Western blotting. The protein extracts were transferred to the nitrocellulose membrane, which was then blocked with 5% (w/v) fat-free milk in TBST [50 mM Tris-HCl, pH 7.5, 150 mM NaCl, 0.05% (v/v) Tween-20], followed by sequential incubation with the specific primary antibody against keratocan and its respective horseradish peroxidase (HRP)-conjugated secondary antibody using β-actin as the loading control. Immunoreactive proteins were detected with Western Lighting Chemiluminescence (PerkinElmer, Waltham, Mass.)."}, "[2]": {"system": "human corneal fibroblasts (HCF)", "assay": "P3 HCF on plastic with or without immobilized HA or HC-HA/PTX3, with or without TGFβ1: mRNA, ELISA, Western blot, immunostaining", "assay_type": "cell-based", "method": "A total of 89 human corneas from individuals aged 18-76 years and maintained at 4° C. in Optisol (Chiron Vision, Irvine, Calif.) for less than 7 days after death were obtained from the Florida Lions Eye Bank (Miami, Fla.) and handled according to the declaration of Helsinki. HCF were isolated and cultured. Epithelial and endothelial cells were removed from corneas, the stroma was cut into cubes of approximately 1 mm^3, incubated in 2 mg/ml collagenase for 16 h at 37° C., and then placed in a culture medium consisting of Dulbecco's modified Eagle's medium (DMEM) supplemented with 10% fetal bovine serum containing […]. The culture medium was changed twice a week. The morphology of the cells was monitored by Nikon Eclipse TS 100 microscope (Melville, N.Y.). Cells cultured to passage 3 (P3) were used for all experiments.\nHuman corneal fibroblasts (P3) were seeded on plastics with or without immobilized HC-HA/PTX3 complex for 72 h in DMEM+10% FBS, then serum starved for 24 h and treated with or without TGFβ1 for 24 h before being harvested for mRNA quantitation or immunostaining. For determination of protein of TGFβ receptor or p75NTR, the cells were treated with or without TGF-β1 for 48 h before collection of protein samples because the protein expression lags behind mRNA expression. For TGF-β1 ELISA, the cells were treated with or without TGF-β1 for 24 h, and then cultured in the fresh medium for another 24 h. The supernatants were collected for TGFβ1 ELISA. For TGFβ2 and TGFβ3 ELISA, the cells were treated with or without TGFβ1 for 48 h. Certain HCF were seeded on glass in DMEM+10% FBS for 24 h, then in DMEM+ITS (insulin-transferrin-selenium) for 24 h, treated with/without PBS or hyaluronic acid (HA) or HC-HA/PTX3±TGFβ1 (10 ng/ml)±Marimastat (10 μM) or ±DAPT (10 μM) or ±both for 0, 5, 15, 30 and 45 minutes before being harvested for immunostaining of CD44-ICD, JNK1, Cyclin D1 and p75NTR and for 5 minutes before being harvested for Western blotting of cytoplasmic and nuclear CD44-ICD, active MT1-MMP, and active γ-secretase after compartmental separation of the cellular components.\nTotal RNAs were extracted using RNeasy Mini Kit and were reverse transcribed using High Capacity Reverse Transcription Kit (Applied Biosystems). cDNA obtained was amplified by real-time RT-PCR using specific primer-probe mixtures and DNA polymerase in 7000 Real-time PCR System (Thermo-Fisher Scientific, Carlsbad, Calif.). Real-time RT-PCR profile consisted of 10 minutes of initial activation at 95° C., followed by 40 cycles of 15 seconds denaturation at 95° C., and 1 min annealing and 1 min extension at 60° C. The genuine identity of each PCR product was confirmed by the size determination using 2% agarose gels followed by ethidium bromide staining together with PCR marker according to EC3 Imaging System (BioImaging System, Upland, Calif.).\nThe Quantikine Human ELISA Kits of TGFβs were used for determination of TGFβs following the manufacturer's instructions (R and D Systems, Minneapolis, Minn.).\nHCF, induced human corneal endothelial cells (HCEC), and HCEC monolayer cultures were air-dried and fixed in 4% formaldehyde, pH 7.0, for 15 min at room temperature, rehydrated in PBS, incubated with 0.2% Triton X-100 for 15 min, and rinsed three times with PBS for 5 min each. After incubation with 2% BSA to block non-specific staining for 30 min, they were incubated with the desired first antibody (all at 1:50 dilution) for 16 h at 4° C. After three washes with PBS, they were incubated with corresponding Alexa-Fluor-conjugated secondary IgG (all 1:100 dilutions) for 60 min. The samples were then counterstained with Hoechst 33342 and analyzed with Zeiss LSM 700 confocal microscope (Thornhood, N.Y.). Corresponding mouse and rabbit sera were used as negative controls for primary monoclonal and polyclonal antibodies, respectively. […]"}}}
{"substance": "hyaluronic acid [HA]", "values": [{"measurement": "aggregation of HCF", "setting": "[1]", "value": "formed some aggregates"}, {"measurement": "expression of NC markers (p75NTR, HNK1, Sox9, KLF4, Snail1, MSX1)", "setting": "[2]; absence of TGFβ1", "value": "only upregulated expression of HNK1"}, {"measurement": "keratocan mRNA and protein", "setting": "[2]; absence of TGFβ1", "value": "upregulated mRNA but not protein of keratocan"}, {"measurement": "TGFβ1 mRNA and protein level", "setting": "[2]; after exogenous TGFβ1 (10 ng/ml)", "value": "upregulated"}, {"measurement": "nuclear translocation of pSMAD2/3 and cytoplasmic expression of α-SMA", "setting": "[2]; exogenous TGFβ1", "value": "caused nuclear translocation of pSMAD2/3 and positive cytoplasmic expression of α-SMA"}, {"measurement": "cell shape / aggregation of P3 HCF", "setting": "[2]; immobilized substrate, DMEM+10% FBS, 24 h", "value": "spindle in shape"}, {"measurement": "keratocan upregulation", "setting": "[2]; presence of TGF-β1", "value": "upregulation disappeared"}, {"measurement": "NC marker mRNA, p75NTR protein and p75NTR nuclear translocation", "setting": "[2]; with TGFβ1", "value": "further upregulated without p75NTR nuclear translocation"}]}
